According to patent US20080009418A1, “Selective Inhibitors” (Alchemia LTD., priority 2004, published 2008):

Tests used:
Human neurokinin (NK1) = target: T1, Human neurokinin (NK1) (Homo sapiens, UniProt P25103); experiment: Radioligand binding, human neurokinin NK1 membranes, filtration, [125I]-Substance P; settings: compound at 10 μM; human neurokinin NK1 membranes
T1 construct: purchased Perkin Elmer Biosignal
Procedure, shortened: (§1)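 Filtration binding on cloned human receptor membranes (1 Unit/well), [125I]-Substance P for NK1 and [3H]-Diprenorphine for KOP, 1 h at room temperature. Filters PEI-presoaked, washed with cold 50 mM Tris-HCl pH 7.4, counted by scintillation; percent inhibition calculated, reference ligand defining non-specific binding.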

Human μ-opioid (MOP) = target: T2, Human μ-opioid (MOP) (Homo sapiens, UniProt P35372); experiment: Radioligand binding, human μ-opioid (MOP) membranes, FlashPlate, [3H]-Naloxone; settings: compound at 10 μM; human μ-opioid (MOP) membranes
T2 construct: purchased Perkin Elmer Biosignal
Procedure, shortened: (§2)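 Cloned human receptor membranes were coated onto FlashPlate wells and incubated with radioligand and compound (added from a 0.5 mM DMSO daughter plate) for 1 hour at room temperature in the dark. Scintillation counting gave percent inhibition, with DMSO defining total and reference ligand defining non-specific binding.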

Human Melanocortin (MC4) = target: T3, Human Melanocortin (MC4) (Homo sapiens, UniProt P32245); experiment: Radioligand binding, human melanocortin MC4 membranes, FlashPlate, [125I]-NDP-αMSH; settings: compound at 10 μM; human melanocortin MC4 membranes
T3 construct: purchased Perkin Elmer Biosignal
Procedure, shortened: as §2

Human δ-opioid (DOP) = target: T4, Human δ-opioid (DOP) (Homo sapiens, UniProt P41143); experiment: Radioligand binding, human δ-opioid (DOP) membranes, FlashPlate, [3H]-Bremazocine; settings: compound at 10 μM; human δ-opioid (DOP) membranes
T4 construct: purchased Perkin Elmer Biosignal
Procedure, shortened: as §2

Human Melanocortin (MC3) = target: T5, Human Melanocortin (MC3) (Homo sapiens, UniProt P41968); experiment: Radioligand binding, human melanocortin MC3 membranes, FlashPlate, [125I]-NDP-αMSH; settings: compound at 10 μM; human melanocortin MC3 membranes
T5 construct: purchased Perkin Elmer Biosignal
Procedure, shortened: as §2

Mouse urotensin (mUR2) = target: T6, Mouse urotensin (mUR2) (Mus musculus, UniProt Q8VIH9); experiment: Radioligand binding, mouse urotensin mUR2 membranes, FlashPlate, [125I]-Urotensin II; settings: compound at 10 μM; mouse urotensin mUR2 membranes
T6 construct: purchased Perkin Elmer Biosignal
T6 sequence (Q8VIH9 1-385): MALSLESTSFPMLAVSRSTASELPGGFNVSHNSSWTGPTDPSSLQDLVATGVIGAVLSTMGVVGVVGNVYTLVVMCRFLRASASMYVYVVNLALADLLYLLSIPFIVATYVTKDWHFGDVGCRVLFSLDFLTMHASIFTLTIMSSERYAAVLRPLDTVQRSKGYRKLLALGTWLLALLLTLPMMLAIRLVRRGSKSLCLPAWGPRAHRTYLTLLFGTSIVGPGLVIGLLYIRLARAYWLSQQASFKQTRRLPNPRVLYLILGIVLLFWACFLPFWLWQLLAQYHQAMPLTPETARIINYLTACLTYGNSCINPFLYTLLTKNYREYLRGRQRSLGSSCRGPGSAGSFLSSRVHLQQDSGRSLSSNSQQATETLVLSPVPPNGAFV
Procedure, shortened: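 Cloned mouse urotensin (mUR2) receptor membranes from Perkin Elmer Biosignal were immobilized in FlashPlate microplates using a proprietary coating. Each well got 19.5 μl buffer, then 0.5 μl of DMSO, reference ligand, or compound. Adding 5 μl of [125I]-Urotensin II, diluted to 5× final concentration in binding buffer, started binding. Plates were sealed with TopSeal-A and incubated 1 hour at room temperature in the dark. Wells were counted for 30 seconds each on a TopCount after a 60-second delay, and percentage inhibition was calculated.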

[1] = target: T7, Human neuropeptide Y (NPY-Y1) (Homo sapiens, UniProt P25929); experiment: Radioligand binding, human neuropeptide Y NPY-Y1 membranes, FlashPlate, [125I]-PYY; settings: compound at 10 μM; human NPY-Y1 membranes
T7 construct: purchased Perkin Elmer Biosignal
T7 sequence (P25929 1-384): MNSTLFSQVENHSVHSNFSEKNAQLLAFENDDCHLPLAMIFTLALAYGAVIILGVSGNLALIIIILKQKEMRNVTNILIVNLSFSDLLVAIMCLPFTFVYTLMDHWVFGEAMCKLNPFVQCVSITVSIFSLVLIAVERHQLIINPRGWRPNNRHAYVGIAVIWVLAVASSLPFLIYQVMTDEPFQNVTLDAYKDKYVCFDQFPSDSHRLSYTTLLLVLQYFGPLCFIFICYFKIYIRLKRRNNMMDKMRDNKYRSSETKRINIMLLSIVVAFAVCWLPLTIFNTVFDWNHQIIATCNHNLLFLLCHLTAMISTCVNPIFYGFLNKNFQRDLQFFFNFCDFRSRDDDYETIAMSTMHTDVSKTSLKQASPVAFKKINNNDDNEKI
Procedure, shortened: as §2

Human opioid (ORL1) = target: T8, Human opioid (ORL1) (Homo sapiens, UniProt P41146); experiment: Radioligand binding, human opioid ORL1 membranes, FlashPlate, [125I]-Nociceptin; settings: compound at 10 μM; human ORL1 membranes
T8 construct: purchased Perkin Elmer Biosignal
Procedure, shortened: as §2

Human melanocortin (MC5) = target: T9, Human melanocortin (MC5) (Homo sapiens, UniProt P33032); experiment: Radioligand binding, human melanocortin MC5 membranes, FlashPlate, [125I]-NDP-αMSH; settings: compound at 10 μM; human melanocortin MC5 membranes
T9 construct: purchased Perkin Elmer Biosignal
Procedure, shortened: as §2

Human κ-Opioid (KOP) = target: T10, Human κ-Opioid (KOP) (Homo sapiens, UniProt P41145); experiment: Radioligand binding, human κ-opioid (KOP) membranes, filtration, [3H]-Diprenorphine; settings: compound at 10 μM; human κ-opioid (KOP) membranes
T10 construct: purchased Perkin Elmer Biosignal
Procedure, shortened: as §1

[2] = target: T11, Human melanin-concentrating hormone (MCH1) (Homo sapiens, UniProt Q99705); experiment: Radioligand binding, human melanin-concentrating hormone MCH1 membranes, FlashPlate, [125I]-S36057; settings: compound at 10 μM; human MCH1 membranes
T11 construct: purchased Perkin Elmer Biosignal
Procedure, shortened: as §2

T2 sequence (P35372 whole entry): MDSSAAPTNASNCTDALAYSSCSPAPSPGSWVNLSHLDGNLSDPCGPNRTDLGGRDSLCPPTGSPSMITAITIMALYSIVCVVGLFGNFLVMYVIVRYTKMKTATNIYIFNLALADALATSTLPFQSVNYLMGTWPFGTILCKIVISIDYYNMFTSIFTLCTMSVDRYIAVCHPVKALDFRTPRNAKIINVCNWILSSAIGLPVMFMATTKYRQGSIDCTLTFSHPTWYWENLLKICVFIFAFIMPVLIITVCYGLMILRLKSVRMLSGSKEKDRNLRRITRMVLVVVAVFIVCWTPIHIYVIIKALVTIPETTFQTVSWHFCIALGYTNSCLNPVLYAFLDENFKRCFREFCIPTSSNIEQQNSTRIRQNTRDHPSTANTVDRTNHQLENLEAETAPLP
T10 sequence (P41145 whole entry): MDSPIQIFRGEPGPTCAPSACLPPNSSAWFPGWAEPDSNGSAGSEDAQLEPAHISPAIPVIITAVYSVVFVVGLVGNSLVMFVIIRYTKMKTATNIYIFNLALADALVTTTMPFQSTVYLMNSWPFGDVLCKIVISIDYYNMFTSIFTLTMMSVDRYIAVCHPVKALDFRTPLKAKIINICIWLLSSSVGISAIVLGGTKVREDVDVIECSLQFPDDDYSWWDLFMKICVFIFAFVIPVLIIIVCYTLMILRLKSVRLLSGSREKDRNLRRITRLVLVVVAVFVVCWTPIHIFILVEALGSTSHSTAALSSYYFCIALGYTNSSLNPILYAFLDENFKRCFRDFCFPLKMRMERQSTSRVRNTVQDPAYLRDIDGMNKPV
T4 sequence (P41143 whole entry): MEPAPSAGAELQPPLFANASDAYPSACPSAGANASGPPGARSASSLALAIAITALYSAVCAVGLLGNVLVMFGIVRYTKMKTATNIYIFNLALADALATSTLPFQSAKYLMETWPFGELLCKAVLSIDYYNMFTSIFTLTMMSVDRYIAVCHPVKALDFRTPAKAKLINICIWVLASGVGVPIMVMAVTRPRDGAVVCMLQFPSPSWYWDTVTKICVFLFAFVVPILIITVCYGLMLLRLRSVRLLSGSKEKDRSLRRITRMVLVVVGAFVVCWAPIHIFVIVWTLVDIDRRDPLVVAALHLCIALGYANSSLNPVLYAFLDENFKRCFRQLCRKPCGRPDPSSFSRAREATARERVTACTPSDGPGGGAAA
T8 sequence (P41146 whole entry): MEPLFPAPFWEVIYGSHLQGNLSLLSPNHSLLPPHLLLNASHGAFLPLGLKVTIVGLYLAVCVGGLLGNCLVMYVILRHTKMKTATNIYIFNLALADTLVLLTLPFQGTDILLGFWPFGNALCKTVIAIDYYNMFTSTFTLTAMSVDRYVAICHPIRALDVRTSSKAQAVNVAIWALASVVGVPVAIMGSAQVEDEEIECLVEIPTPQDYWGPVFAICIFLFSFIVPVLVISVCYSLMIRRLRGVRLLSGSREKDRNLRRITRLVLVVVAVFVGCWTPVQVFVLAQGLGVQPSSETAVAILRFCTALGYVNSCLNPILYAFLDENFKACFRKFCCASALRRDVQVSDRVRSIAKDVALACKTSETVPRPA
T1 sequence (P25103 whole entry): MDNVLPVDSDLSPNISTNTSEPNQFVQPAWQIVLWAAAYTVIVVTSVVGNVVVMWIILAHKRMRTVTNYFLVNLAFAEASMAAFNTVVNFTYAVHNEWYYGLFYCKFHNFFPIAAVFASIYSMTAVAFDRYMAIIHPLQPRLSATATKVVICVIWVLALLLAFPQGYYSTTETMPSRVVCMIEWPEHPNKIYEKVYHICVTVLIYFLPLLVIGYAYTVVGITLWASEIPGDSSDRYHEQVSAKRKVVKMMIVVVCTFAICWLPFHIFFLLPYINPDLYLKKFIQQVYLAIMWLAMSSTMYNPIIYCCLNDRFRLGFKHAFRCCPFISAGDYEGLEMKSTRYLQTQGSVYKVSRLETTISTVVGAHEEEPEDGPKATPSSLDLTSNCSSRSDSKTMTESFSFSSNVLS
T11 sequence (Q99705 whole entry): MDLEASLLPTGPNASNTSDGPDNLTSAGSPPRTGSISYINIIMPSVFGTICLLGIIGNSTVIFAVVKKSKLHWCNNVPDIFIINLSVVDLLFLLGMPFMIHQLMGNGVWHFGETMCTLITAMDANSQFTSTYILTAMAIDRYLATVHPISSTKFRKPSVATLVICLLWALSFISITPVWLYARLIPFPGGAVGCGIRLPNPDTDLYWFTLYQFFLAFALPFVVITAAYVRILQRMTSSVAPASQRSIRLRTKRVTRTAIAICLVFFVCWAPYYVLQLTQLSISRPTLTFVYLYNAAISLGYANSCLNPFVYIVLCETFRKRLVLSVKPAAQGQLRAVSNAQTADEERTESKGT
T5 sequence (P41968 whole entry): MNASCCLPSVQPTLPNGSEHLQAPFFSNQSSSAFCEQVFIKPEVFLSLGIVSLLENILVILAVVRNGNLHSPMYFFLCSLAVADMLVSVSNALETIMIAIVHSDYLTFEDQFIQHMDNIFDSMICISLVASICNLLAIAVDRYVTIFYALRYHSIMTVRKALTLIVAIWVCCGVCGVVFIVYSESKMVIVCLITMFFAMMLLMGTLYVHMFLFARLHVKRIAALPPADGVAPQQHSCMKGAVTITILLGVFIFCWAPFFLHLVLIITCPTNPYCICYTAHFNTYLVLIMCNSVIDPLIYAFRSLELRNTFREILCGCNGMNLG
T3 sequence (P32245 whole entry): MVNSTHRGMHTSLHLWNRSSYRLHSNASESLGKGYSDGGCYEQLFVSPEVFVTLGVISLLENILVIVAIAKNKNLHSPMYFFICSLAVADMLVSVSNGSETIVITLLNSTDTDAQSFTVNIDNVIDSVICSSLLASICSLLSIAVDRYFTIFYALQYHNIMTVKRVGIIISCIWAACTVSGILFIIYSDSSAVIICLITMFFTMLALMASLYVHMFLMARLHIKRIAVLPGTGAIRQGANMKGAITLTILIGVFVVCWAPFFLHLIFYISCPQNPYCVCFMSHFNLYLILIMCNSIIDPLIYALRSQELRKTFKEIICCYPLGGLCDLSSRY
T9 sequence (P33032 whole entry): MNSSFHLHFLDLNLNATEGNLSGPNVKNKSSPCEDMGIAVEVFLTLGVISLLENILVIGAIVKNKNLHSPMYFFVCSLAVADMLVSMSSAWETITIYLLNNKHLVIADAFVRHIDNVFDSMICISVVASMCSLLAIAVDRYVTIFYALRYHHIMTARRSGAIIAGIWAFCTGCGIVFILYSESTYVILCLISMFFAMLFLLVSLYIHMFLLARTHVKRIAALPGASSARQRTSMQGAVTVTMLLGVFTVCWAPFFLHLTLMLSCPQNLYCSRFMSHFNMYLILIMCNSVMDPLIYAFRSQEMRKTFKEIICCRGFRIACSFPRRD

Row | Structure (SMILES) | A8 radioligand binding inhibition (Human neurokinin (NK1)) | A7 radioligand binding inhibition (Human μ-opioid (MOP)) | A4 radioligand binding inhibition (Human Melanocortin (MC4)) | A1 radioligand binding inhibition (Human δ-opioid (DOP)) | A3 radioligand binding inhibition (Human Melanocortin (MC3)) | A11 radioligand binding inhibition (Mouse urotensin (mUR2)) | A9 radioligand binding inhibition [1] | A10 radioligand binding inhibition (Human opioid (ORL1)) | A5 radioligand binding inhibition (Human melanocortin (MC5)) | A2 radioligand binding inhibition (Human κ-Opioid (KOP)) | A6 radioligand binding inhibition [2]
1 | COC[C@H]1OC(OCCc2ccccc2)[C@H](NC(=O)CCNC(=N)N)[C@@H](OCc2ccccc2)[C@@H]1O (stereo partly drawn) [compound 46] | + (“+” indicates greater than 50% inhibition at 10 μM) | − (“−” indicates less than 50% inhibition at 10 μM) | − (“−” indicates less than 50% inhibition at 10 μM) | − (“−” indicates less than 50% inhibition at 10 μM) | − (“−” indicates less than 50% inhibition at 10 μM) | − (“−” indicates less than 50% inhibition at 10 μM) | − (“−” indicates less than 50% inhibition at 10 μM) | − (“−” indicates less than 50% inhibition at 10 μM) | − (“−” indicates less than 50% inhibition at 10 μM) | − (“−” indicates less than 50% inhibition at 10 μM) | − (“−” indicates less than 50% inhibition at 10 μM)
2 | COC[C@H]1OC(OCCc2ccccc2)[C@H](NC(=O)CCCN)[C@@H](OCc2ccccc2)[C@@H]1O (stereo partly drawn) [compound 47] | + (“+” indicates greater than 50% inhibition at 10 μM) | − (“−” indicates less than 50% inhibition at 10 μM) | − (“−” indicates less than 50% inhibition at 10 μM) | − (“−” indicates less than 50% inhibition at 10 μM) | − (“−” indicates less than 50% inhibition at 10 μM) | − (“−” indicates less than 50% inhibition at 10 μM) | − (“−” indicates less than 50% inhibition at 10 μM) | − (“−” indicates less than 50% inhibition at 10 μM) | − (“−” indicates less than 50% inhibition at 10 μM) | − (“−” indicates less than 50% inhibition at 10 μM) | − (“−” indicates less than 50% inhibition at 10 μM)
3 | COC[C@H]1OC(OCCc2ccccc2)[C@H](NC(=O)CNC(=N)N)[C@@H](OCc2ccc(Cl)cc2)[C@@H]1O (stereo partly drawn) [compound 48] | − (“−” indicates less than 50% inhibition at 10 μM) | − (“−” indicates less than 50% inhibition at 10 μM) | + (“+” indicates greater than 50% inhibition at 10 μM) | − (“−” indicates less than 50% inhibition at 10 μM) | − (“−” indicates less than 50% inhibition at 10 μM) | − (“−” indicates less than 50% inhibition at 10 μM) | − (“−” indicates less than 50% inhibition at 10 μM) | − (“−” indicates less than 50% inhibition at 10 μM) | + (“+” indicates greater than 50% inhibition at 10 μM) | − (“−” indicates less than 50% inhibition at 10 μM) | + (“+” indicates greater than 50% inhibition at 10 μM)
4 | COC[C@H]1OC(OCCc2ccccc2)[C@H](NC(=O)CCNC(=N)N)[C@@H](OCc2ccc(Cl)cc2)[C@@H]1O (stereo partly drawn) [compound 49] | + (“+” indicates greater than 50% inhibition at 10 μM) | − (“−” indicates less than 50% inhibition at 10 μM) | + (“+” indicates greater than 50% inhibition at 10 μM) | − (“−” indicates less than 50% inhibition at 10 μM) | − (“−” indicates less than 50% inhibition at 10 μM) | − (“−” indicates less than 50% inhibition at 10 μM) | − (“−” indicates less than 50% inhibition at 10 μM) | − (“−” indicates less than 50% inhibition at 10 μM) | − (“−” indicates less than 50% inhibition at 10 μM) | − (“−” indicates less than 50% inhibition at 10 μM) | − (“−” indicates less than 50% inhibition at 10 μM)
5 | COC[C@H]1OC(OCCc2ccccc2)[C@H](NC(=O)CCCNC(=N)N)[C@@H](OCc2ccc(Cl)cc2)[C@@H]1O (stereo partly drawn) [compound 50] | + (“+” indicates greater than 50% inhibition at 10 μM) | − (“−” indicates less than 50% inhibition at 10 μM) | − (“−” indicates less than 50% inhibition at 10 μM) | − (“−” indicates less than 50% inhibition at 10 μM) | − (“−” indicates less than 50% inhibition at 10 μM) | − (“−” indicates less than 50% inhibition at 10 μM) | − (“−” indicates less than 50% inhibition at 10 μM) | − (“−” indicates less than 50% inhibition at 10 μM) | − (“−” indicates less than 50% inhibition at 10 μM) | − (“−” indicates less than 50% inhibition at 10 μM) | + (“+” indicates greater than 50% inhibition at 10 μM)
6 | CO[C@H]1[C@H](O)[C@@H](COCc2ccc(-c3ccccc3)cc2)OC(OCc2ccc(-c3ccccc3)cc2)[C@@H]1NC(=O)CNC(=N)N (stereo partly drawn) [compound 51] | + (“+” indicates greater than 50% inhibition at 10 μM) | − (“−” indicates less than 50% inhibition at 10 μM) | + (“+” indicates greater than 50% inhibition at 10 μM) | − (“−” indicates less than 50% inhibition at 10 μM) | + (“+” indicates greater than 50% inhibition at 10 μM) | − (“−” indicates less than 50% inhibition at 10 μM) | − (“−” indicates less than 50% inhibition at 10 μM) | + (“+” indicates greater than 50% inhibition at 10 μM) | + (“+” indicates greater than 50% inhibition at 10 μM) | − (“−” indicates less than 50% inhibition at 10 μM) | + (“+” indicates greater than 50% inhibition at 10 μM)
